From patent US11053253B2, “Macrocyclic compounds for treatment of medical disorders” (Achillion Pharmaceuticals, Inc., priority 2017, dated 2021)
pIC50: −log10 of the molar value.

Biological target: Human Factor D (Homo sapiens (Human), UniProt P00746)
Experiment: Human Factor D Assay
Format: biochemical
Conditions: Human Factor D 80 nM, substrate Z-L-Lys-SBzl, DTNB, A405; read-out: IC50 (Stars)
Method: Example 2. Human Factor D Assay
Human Factor D (purified from human serum, Complement Technology, Inc.) at 80 nM final concentration is incubated with test compound at various concentrations for 5 min at room temperature in 50 mM Tris, 1M NaCl, pH 7.5. A synthetic substrate Z-L-Lys-SBzl and DTNB (Ellman's reagent) are added to final concentrations of 100 µM each. Absorbance at 405 nm (A405) is recorded at 30 second intervals for 30 minutes using a microplate spectrophotometer. IC50 values are calculated by nonlinear regression of Complement Factor D reaction rates as a function of test compound concentration.

Sequence of Human Factor D (P00746 26-253): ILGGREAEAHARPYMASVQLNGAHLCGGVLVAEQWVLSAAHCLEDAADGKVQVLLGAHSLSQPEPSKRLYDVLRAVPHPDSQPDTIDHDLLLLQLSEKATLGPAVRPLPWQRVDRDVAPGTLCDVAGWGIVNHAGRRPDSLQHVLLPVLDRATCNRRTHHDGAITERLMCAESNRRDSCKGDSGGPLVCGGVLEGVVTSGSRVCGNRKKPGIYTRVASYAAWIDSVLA

CC(=O)c1nn(CC(=O)N2C3CC34COCC=CCOCc3ccc(Br)nc3NC(=O)[C@@H]2C4)c2ccc(-c3cnc(C)nc3)cc12 (stereo partly drawn) [Compound T-1, (43S)-44-(2-(3-acetyl-5-(2-methylpyrimidin-5-yl)-1H-indazol-1-yl)acetyl)-16-bromo-6,11-dioxa-44,2-diaza-1(2,3)-pyridina-4(3,1)-bicyclo[3.1.0]hexanacyclododecaphan-8-en-3-one] and CC(=O)c1nn(CC(=O)N2[C@H]3C[C@@]4(COCC=CCOCc5ccc(Br)nc5NC3=O)C[C@@H]24)c2ccc(-c3cnc(C)nc3)cc12 [Compound T-3, (41R,43S,45S)-42-(2-(3-acetyl-5-(2-methylpyrimidin-5-yl)-1H-indazol-1-yl)acetyl)-16-bromo-6,11-dioxa-42,2-diaza-1(2,3)-pyridina-4(3,5)-bicyclo[3.1.0]hexanacyclododecaphan-8-en-3-one] cannot be ordered by pIC50: greater than 6.00 for the first, greater than 6.00 for the second.

CC(=O)c1nn(CC(=O)N2C3CC34CNC(=O)CCC=CCOCc3ccc(Br)nc3NC(=O)[C@@H]2C4)c2ccc(-c3cnc(C)nc3)cc12 (stereo partly drawn) [Compound T-2, (43S)-44-(2-(3-acetyl-5-(2-methylpyrimidin-5-yl)-1H-indazol-1-yl)acetyl)-16-bromo-13-oxa-44,2,6-triaza-1(2,3)-pyridina-4(3,1)-bicyclo[3.1.0]hexanacyclotetradecaphan-10-ene-3,7-dione] and CC(=O)c1nn(CC(=O)N2[C@H]3C[C@]4(C[C@@H]24)CN(C)CC=CCOCc2ccc(Br)nc2NC3=O)c2ccc(-c3cnc(C)nc3)cc12 [Compound T-6, (41R,43S,45R)-42-(2-(3-acetyl-5-(2-methylpyrimidin-5-yl)-1H-indazol-1-yl)acetyl)-16-bromo-6-methyl-11-oxa-42,2,6-triaza-1(2,3)-pyridina-4(3,5)-bicyclo[3.1.0]hexanacyclododecaphan-8-en-3-one] cannot be ordered by pIC50: greater than 6.00 for the first, greater than 6.00 for the second.

CC(=O)c1nn(CC(=O)N2[C@H]3C[C@@]4(COCCCCOCc5ccc(Br)nc5NC3=O)C[C@@H]24)c2ccc(-c3cnc(C)nc3)cc12 [Compound T-4, (41R,43S,45S)-42-(2-(3-acetyl-5-(2-methylpyrimidin-5-yl)-1H-indazol-1-yl)acetyl)-16-bromo-6,11-dioxa-42,2-diaza-1(2,3)-pyridina-4(3,5)-bicyclo[3.1.0]hexanacyclododecaphan-3-one] and CC(=O)c1nn(CC(=O)N2[C@H]3C[C@]4(C[C@@H]24)CN(C)CCCCOCc2ccc(Br)nc2NC3=O)c2ccc(-c3cnc(C)nc3)cc12 [Compound T-7, (41R,43S,45R)-42-(2-(3-acetyl-5-(2-methylpyrimidin-5-yl)-1H-indazol-1-yl)acetyl)-16-bromo-6-methyl-11-oxa-42,2,6-triaza-1(2,3)-pyridina-4(3,5)-bicyclo[3.1.0]hexanacyclododecaphan-3-one] cannot be ordered by pIC50: greater than 6.00 for the first, greater than 6.00 for the second.

CC(=O)c1nn(CC(=O)N2[C@H]3C[C@@]4(COCC=CCOCc5cccnc5NC3=O)C[C@@H]24)c2ccc(-c3cnc(C)nc3)cc12 [Compound T-5, (41R,43S,45S)-42-(2-(3-acetyl-5-(2-methylpyrimidin-5-yl)-1H-indazol-1-yl)acetyl)-6,11-dioxa-42,2-diaza-1(2,3)-pyridina-4(3,5)-bicyclo[3.1.0]hexanacyclododecaphan-8-en-3-one] and CC(=O)N[C@H]1CC=CCOCc2ccc(Br)nc2NC(=O)[C@@H]2C[C@@]3(CNC1=O)C[C@H]3N2C(=O)Cn1nc(C(C)=O)c2cc(-c3cnc(C)nc3)ccc21 [Compound T-22, N-((41R,43S,45R,8S)-42-(2-(3-acetyl-5-(2-methylpyrimidin-5-yl)-1H-indazol-1-yl)acetyl)-16-bromo-3,7-dioxo-13-oxa-42,2,6-triaza-1(2,3)-pyridina-4(3,5)-bicyclo[3.1.0]hexanacyclotetradecaphan-10-en-8-yl)acetamide] cannot be ordered by pIC50: greater than 6.00 for the first, greater than 6.00 for the second.

CC(=O)c1nn(CC(=O)N2[C@H]3C[C@]4(C[C@@H]24)CN(C)CCCCC=Cc2ccc(Br)nc2NC3=O)c2ccc(-c3cnc(C)nc3)cc12 [Compound T-8, (41R,43S,45R)-42-(2-(3-acetyl-5-(2-methylpyrimidin-5-yl)-1H-indazol-1-yl)acetyl)-16-bromo-6-methyl-42,2,6-triaza-1(2,3)-pyridina-4(3,5)-bicyclo[3.1.0]hexanacyclododecaphan-11-en-3-one] and CC(=O)c1nn(CC(=O)N2[C@H]3C[C@@]4(CNS(=O)(=O)CCC=Cc5ccc(Br)nc5NC3=O)C[C@@H]24)c2ccc(-c3cnc(C)nc3)cc12 [Compound T-9, (41R,43S,45R)-42-(2-(3-acetyl-5-(2-methylpyrimidin-5-yl)-1H-indazol-1-yl)acetyl)-16-bromo-7-thia-42,2,6-triaza-1(2,3)-pyridina-4(3,5)-bicyclo[3.1.0]nexanacycloundecaphan-10-en-3-one 7,7-dioxide] cannot be ordered by pIC50: greater than 6.00 for the first, greater than 6.00 for the second.

CC(=O)c1nn(CC(=O)N2[C@H]3C[C@@]4(COCC=CCOCc5ccc(Br)nc5NC3=O)C[C@@H]24)c2ccccc12 [Compound T-10, (41R,43S,45S)-42-(2-(3-acetyl-1H-indazol-1-yl)acetyl)-16-bromo-6,11-dioxa-42,2-diaza-1(2,3)-pyridina-4(3,5)-bicyclo[3.1.0]hexanacyclododecaphan-8-en-3-one] and CC(=O)c1nn(CC(=O)N2[C@H]3C[C@@]4(COCC=CCOCc5ccc(Br)nc5NC3=O)C[C@@H]24)c2cnccc12 [Compound T-11, (41R,43S,45S)-42-(2-(3-acetyl-1H-pyrazolo[3,4-c]pyridin-1-yl)acetyl)-16-bromo-6,11-dioxa-42,2-diaza-1(2,3)-pyridina-4(3,5)-bicyclo[3.1.0]hexanacyclododecaphan-8-en-3-one] cannot be ordered by pIC50: greater than 6.00 for the first, greater than 6.00 for the second.

CC(=O)c1nn(CC(=O)N2[C@H]3C[C@@]4(COCC=CCOCc5ccc(Br)nc5NC3=O)C[C@@H]24)c2c(C)cccc12 [Compound T-12, (41R,43S,45S)-42-(2-(3-acetyl-7-methyl-1H-indazol-1-yl)acetyl)-16-bromo-6,11-dioxa-42,2-diaza-1(2,3)-pyridina-4(3,5)-bicyclo[3.1.0]hexanacyclododecaphan-8-en-3-one] and CC(=O)c1nn(CC(=O)N2[C@H]3C[C@]4(C[C@@H]24)Cn2cc(nn2)COCc2ccc(Br)nc2NC3=O)c2ccc(-c3cnc(C)nc3)cc12 [Compound T-18, (31R,33S,35R,Z)-32-(2-(3-acetyl-5-(2-methylpyrimidin-5-yl)-1H-indazol-1-yl)acetyl)-66-bromo-11H-8-oxa-32,5-diaza-6(2,3)-pyridina-1(1,4)-triazola-3(5,3)-bicyclo[3.1.0]hexanacyclononaphan-4-one] cannot be ordered by pIC50: greater than 6.00 for the first, greater than 6.00 for the second.

CC(=O)c1nn(CC(=O)N2[C@H]3C[C@]4(C[C@@H]24)CN(C)CCCCC=Cc2ccc(Br)nc2NC3=O)c2cnccc12 [Compound T-13, (41R,43S,45R)-42-(2-(3-acetyl-1H-pyrazolo[3,4-c]pyridin-1-yl)acetyl)-16-bromo-6-methyl-42,2,6-triaza-1(2,3)-pyridina-4(3,5)-bicyclo[3.1.0]hexanacyclododecaphan-11-en-3-one] and CC(=O)c1nn(CC(=O)N2[C@H]3C[C@@]4(CNS(=O)(=O)CCC=Cc5ccc(Br)nc5NC3=O)C[C@@H]24)c2cnccc12 [Compound T-16, (41R,43S,45R)-42-(2-(3-acetyl-1H-pyrazolo[3,4-c]pyridin-1-yl)acetyl)-16-bromo-7-thia-42,2,6-triaza-1(2,3)-pyridina-4(3,5)-bicyclo[3.1.0]hexanacycloundecaphan-10-en-3-one 7,7-dioxide] cannot be ordered by pIC50: greater than 6.00 for the first, greater than 6.00 for the second.

CC(=O)c1cc2n(n1)CC(=O)N1[C@@H](C[C@@]3(C)C[C@@H]13)C(=O)Nc1nc(Br)ccc1COC/C=C/CCNC2=O [Compound T-14, (18aS,19aR,20aR,E)-2-acetyl-15-bromo-19a-methyl-6,7,12,17,18a,19,19a,20,20a,23-decahydro-4H-cyclopropa[4,5]pyrrolo[2,1-g]pyrazolo[1,5-k]pyrido[3,2-c][1,5,8,11,14]oxatetraazacyclononadecine-4,18,22(5H,10H)-trione] and CC(=O)c1cc2n(n1)CC(=O)N1[C@@H](C[C@@]3(C)C[C@@H]13)C(=O)Nc1nc(Br)ccc1COC/C=C\CCNC2=O [Compound T-15, (18aS,19aR,20aR,Z)-2-acetyl-15-bromo-19a-methyl-6,7,12,17,18a,19,19a,20,20a,23-decahydro-4H-cyclopropa[4,5]pyrrolo[2,1-g]pyrazolo[1,5-k]pyrido[3,2-c][1,5,8,11,14]oxatetraazacyclononadecine-4,18,22(5H,10H)-trione] cannot be ordered by pIC50: less than 5.00 for the first, less than 5.00 for the second.

CC(=O)c1nn(CC(=O)N2[C@H]3C[C@@]4(C=CCCCCN(C)C(=O)Cc5ccc(Br)nc5NC3=O)C[C@@H]24)c2ccc(-c3cnc(C)nc3)cc12 [Compound T-19, (41R,43S,45R)-42-(2-(3-acetyl-5-(2-methylpyrimidin-5-yl)-1H-indazol-1-yl)acetyl)-16-bromo-11-methyl-42,2,11-triaza-1(2,3)-pyridina-4(3,5)-bicyclo[3.1.0]hexanacyclotridecaphan-5-ene-3,12-dione] and CC(=O)c1nn2c3c(cc(-c4cnc(C)nc4)cc13)CC=CCCCC(=O)NC[C@@]13C[C@@H](C(=O)Nc4nc(Br)ccc4C)N(C(=O)C2)[C@@H]1C3 [Compound T-21, (41R,43S,45R)-13-acetyl-N-(6-bromo-3-methylpyridin-2-yl)-15-(2-methylpyrimidin-5-yl)-3,7-dioxo-11H-42,6-diaza-1(1,7)-indazoia-4(2,5)-bicyclo[3.1.0]hexanacyclotridecaphan-11-ene-43-carboxamide] cannot be ordered by pIC50: greater than 6.00 for the first, greater than 6.00 for the second.

For CC(=O)c1nn2c3c(cc(-c4cnc(C)nc4)cc13)CCC=CCCCC(=O)NC[C@@]13C[C@@H](C(=O)Nc4nc(Br)ccc4C)N(C(=O)C2)[C@@H]1C3 [Compound T-20, (41R,43S,45R)-13-acetyl-N-(6-bromo-3-methylpyridin-2-yl)-15-(2-methylpyrimidin-5-yl)-3,7-dioxo-11H-42,6-diaza-1(1,7)-indazola-4(2,5)-bicyclo[3.1.0]hexanacyclotetradecaphan-11-ene-43-carboxamide], the pIC50 was greater than 6.00.
